Among the data in patent publication US20190031618A1, “BENZIMIDAZOLE DERIVATIVES USEFUL AS CB-1 INVERSE AGONISTS” (Janssen Pharmaceutica NV, priority 2015, published 2019) are EC50 values, retold here.

Test [1] concerns the target Human CB1R (Cannabinoid receptor 1) (Homo sapiens, UniProt P21554). Kind of test: CB-1 in vitro cAMP (HTRF) assay. Type of test: cell-based. The settings on record: HEK cells, cAMP HTRF, 250 nM forskolin; mean where tested more than once; read-out: CB1 HEK_cAMP EC50. In short, it runs like this:
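Intracellular cAMP from HTRF ratio (d2-cAMP vs Eu-cryptate anti-cAMP), converted to nM via per-plate standards, in stable human CB1R HEK-293 cells.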
In general terms: In TR-FRET formats the signal depends on donor and acceptor labels being close together.

Test [2] deals with Human CB2R (Cannabinoid receptor 2) (Homo sapiens, UniProt P34972). Kind of test: CB-2 in vitro cAMP (HTRF) assay. Type of test: cell-based. As to conditions: HEK cells, cAMP HTRF, 250 nM forskolin; mean where tested more than once; read-out: CB2 HEK_cAMP EC50. In short, it runs like this:
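Competitive HTRF read-out (d2-labelled cAMP vs cryptate antibody) quantifies cAMP in stably transfected HEK-293 cells, seeded the day before at 4E5 cells/mL. Stimulation buffer: HBSS, 5 mM HEPES, 0.1% BSA, 0.5 mM IBMX; forskolin prepared at 1.5 μM in buffer; compounds serially diluted 1/3 in DMSO.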

Chain of Human CB1R (Cannabinoid receptor 1) (P21554 whole entry): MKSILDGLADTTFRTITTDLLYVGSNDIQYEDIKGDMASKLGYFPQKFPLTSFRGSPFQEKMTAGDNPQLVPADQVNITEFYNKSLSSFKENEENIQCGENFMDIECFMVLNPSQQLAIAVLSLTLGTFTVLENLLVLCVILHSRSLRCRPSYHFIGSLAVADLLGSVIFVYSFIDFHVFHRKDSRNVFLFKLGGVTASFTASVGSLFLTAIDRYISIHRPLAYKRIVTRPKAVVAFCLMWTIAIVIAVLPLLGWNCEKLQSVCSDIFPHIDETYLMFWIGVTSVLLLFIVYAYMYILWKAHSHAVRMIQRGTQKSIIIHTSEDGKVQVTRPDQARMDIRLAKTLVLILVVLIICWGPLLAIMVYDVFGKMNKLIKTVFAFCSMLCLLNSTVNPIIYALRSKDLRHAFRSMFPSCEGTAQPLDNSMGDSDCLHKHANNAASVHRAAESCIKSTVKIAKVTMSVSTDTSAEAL
Chain of Human CB2R (Cannabinoid receptor 2) (P34972 whole entry): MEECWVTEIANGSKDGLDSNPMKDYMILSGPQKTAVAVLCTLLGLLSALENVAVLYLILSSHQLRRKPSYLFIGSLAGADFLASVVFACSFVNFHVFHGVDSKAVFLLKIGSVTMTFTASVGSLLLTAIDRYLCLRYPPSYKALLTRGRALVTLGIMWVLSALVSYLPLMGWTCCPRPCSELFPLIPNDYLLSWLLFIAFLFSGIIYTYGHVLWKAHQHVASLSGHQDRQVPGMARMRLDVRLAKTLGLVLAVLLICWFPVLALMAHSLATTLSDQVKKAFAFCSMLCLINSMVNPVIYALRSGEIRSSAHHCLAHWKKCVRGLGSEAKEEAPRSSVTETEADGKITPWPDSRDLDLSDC

Broadly, the EC50 is the concentration that produces a half-maximal response. For the compound `NC(=O)COc1ccc(Cn2c(C3CC3)nc3ccc(C(c4ccc(Cl)cc4)c4ccc(Cl)cc4)cc32)cc1` [Example 182], the values for the half-maximal effective concentration (EC50) in test [1] and in test [2] were 255 nM and 2930 nM, respectively.
The like results for `OC(c1ccc(Cl)cc1)(c1ccc2ncn(CCc3cccc(Cl)c3)c2c1)c1nccs1` (stereo not drawn) [Example 405] were, in that order, 4490 nM and 3350 nM.
As for `O=S(=O)(c1ccccc1C(F)(F)F)N1CCC(n2c(C3CC3)nc3ccc(C(c4ccc(Cl)cc4)c4ccc(Cl)cc4)cc32)CC1` [Example 272], the values for the EC50 in test [1] and in test [2] were 10.8 nM and above 10000 nM, respectively.
In the same order, the values of `O=C(O)c1cc(CN2CCC(n3c(C4CC4)nc4ccc(C(c5ccc(Cl)cc5)c5ccc(Cl)cc5)cc43)CC2)ccc1F` [Example 95] are 11.2 nM and above 10000 nM.
In the same order, the values of `CC(c1ccc(C(=O)O)o1)N1CCC(n2c(C3CC3)nc3ccc(C(c4ccc(Cl)cc4)c4ccc(Cl)cc4)cc32)CC1` (stereo not drawn) [Example 86] are 15 nM and 10200 nM.
The like results for `COc1ccc(Cn2c(C3CC3)nc3ccc(C(c4ccc(Cl)cc4)c4ccc(Cl)cc4)cc32)cc1` [Example 177] were, in that order, 96.7 nM and 7900 nM.
Turning to `CCOC(=O)c1nc2ccc(C(c3ccc(Cl)cc3)c3nccs3)cc2n1C1CCN(C(=O)OCC)CC1` (stereo not drawn) [Example 413], the figures for the half-maximal effective concentration (EC50) in test [1] and in test [2] were 315 nM and above 10000 nM, respectively.
In the same order, the values of `NC(=O)c1ccc(S(=O)(=O)N2CCC(n3c(C4CC4)nc4ccc(C(c5ccc(Cl)cc5)c5ccc(Cl)cc5)cc43)CC2)o1` [Example 224] are 6 nM and above 10000 nM.
The like results for `C=C(CO)c1nc2ccc(C(c3ccc(Cl)cc3)c3ccc(Cl)cc3)cc2n1C1CCN(S(=O)(=O)C(F)(F)F)CC1` [Example 118] were, in that order, 98 nM and above 10000 nM.
In the same order, the values of `CCOC(=O)N1CCC(n2c(C3CCCO3)nc3ccc(C(c4ccc(Cl)cc4)c4nccs4)cc32)CC1` (stereo not drawn) [Example 411] are 376 nM and above 10000 nM.
For `O=C(O)c1ccc(S(=O)(=O)N2CCC(n3c(C4CC4)nc4ccc(C(c5ccc(Cl)cc5)c5ccc(Cl)cc5)cc43)CC2)cc1F` [Example 190], the concentration giving a half-maximal response (EC50) worked out at 11.3 nM in test [1] and 699 nM in test [2].
The like results for `Clc1ccc(C(c2ccc(Cl)cc2)c2ccc3nc(C4CC4)n(C4CCOCC4)c3c2)cc1` [Example 119] were, in that order, 94.9 nM and 6740 nM.
The like results for `O=C(O)C(c1ccc(Cl)cc1)(c1ccc(Cl)cc1)c1ccc2nc(C3CC3)n(C3CCN(S(=O)(=O)C(F)(F)F)CC3)c2c1` [Example 267] were, in that order, 7 nM and above 10000 nM.
In the same order, the values of `CC(C)(C)OC(=O)N1CCC(n2c(C3CC3)nc3ccc(C(O)(c4ccc(Cl)cc4)c4ccc(Cl)cc4)cc32)CC1` [Example 41] are 30.6 nM and above 42000 nM.
As to `O=S(=O)(c1ccc(O)c(F)c1)N1CCC(n2c(C3CC3)nc3ccc(C(c4ccc(Cl)cc4)c4ccc(Cl)cc4)cc32)CC1` [Example 220], the EC50 in test [1] came out at 1370 nM; in test [2] it was 5840 nM.
In the same order, the values of `COC(=O)c1cccc(N2CCC(Cn3c(C4CC4)nc4ccc(C(c5ccc(Cl)cc5)c5ccc(Cl)cc5)cc43)CC2)c1` [Example 13] are above 10000 nM and above 10000 nM.
The like results for `COC(=O)c1cc(OCCn2c(C3CC3)nc3ccc(C(c4ccc(Cl)cc4)c4ccc(Cl)cc4)cc32)cc(C(F)(F)F)c1` [Example 18] were, in that order, 53.3 nM and above 10000 nM.
Regarding `O=C(O)c1ccc(C(=O)N2CCC(n3c(C4CC4)nc4ccc(C(c5ccc(Cl)cc5)c5ccc(Cl)cc5)cc43)CC2)cn1` [Example 231], the values for the EC50 in test [1] and in test [2] were 709 nM and above 10000 nM, respectively.
With `COc1ccc(S(=O)(=O)N2CCC(n3c(C4CC4)nc4ccc(C(c5ccc(Cl)cc5)c5ccc(Cl)cc5)cc43)CC2)cc1` [Example 281], the EC50 in test [1] is 12.5 nM; in test [2], above 10000 nM.
The like results for `O=S(=O)(N1CCC(n2c(C3CCC3)nc3ccc(C(O)(c4ccc(Cl)cc4)c4ccc(Cl)cc4)cc32)CC1)C(F)(F)F` [Example 319] were, in that order, 22.5 nM and above 10000 nM.
In the case of `O=C(O)c1ccc(S(=O)(=O)N[C@H]2CC[C@H](n3c(C4CC4)nc4ccc(C(c5ccc(Cl)cc5)c5ccc(Cl)cc5)cc43)CC2)cc1` [Example 21], the 50% effective concentration (EC50) worked out at 253 nM in test [1] and 4540 nM in test [2].
The like results for `O=S(=O)(c1cc(Cl)c(O)c(Cl)c1)N1CCC(n2c(C3CC3)nc3ccc(C(c4ccc(Cl)cc4)c4ccc(Cl)cc4)cc32)CC1` [Example 222] were, in that order, 11 nM and 4960 nM.
With `O=C(O)c1ccc(N2CCC(Cn3c(C4CC4)nc4ccc(C(c5ccc(Cl)cc5)c5ccc(Cl)cc5)cc43)CC2)cc1` [Example 1], the EC50 is 11.4 nM in test [1] and 2850 nM in test [2].
In the same order, the values of `NCCS(=O)(=O)N1CCC(n2c(C3CC3)nc3ccc(C(c4ccc(Cl)cc4)c4ccc(Cl)cc4)cc32)CC1` [Example 46] are 450 nM and above 42000 nM.
